In US6649605B2, “Treatment of tension-type headaches with NMDA receptor antagonists” (Head Explorer A/S, priority 1996, dated 2003):
“Also recorded” adds a separate entry of the source.

Assays:
[1] = tested on: patients with chronic tension-type headache; test: Open labeled pilot study of prophylactic Dextromethorphan; assay type: in vivo, human
Source text: Five patients with a diagnosis of chronic tension-type headache according to the International Headache Society (Headache Classification Committee 1988) were recruited from the outpatient headache clinic at Glostrup Hospital. There were 2 males and 3 females, and the mean age was 45.4 years (range 39-48). The mean life time duration of chronic tension-type headache was 12.2 years (range 4-25). One patient had coexisting but infrequent migraine. Exclusion criteria were; daily major medication (including prophylactic headache therapy); abuse of analgesics or alcohol; serious somatic or psychiatric diseases including depression.
Using an open labeled design, patients fulfilled a diagnostic headache diary during at least 4 weeks run-in period to ensure the diagnostic criteria. Thereafter, the patients received Dextromethorphan (Dexofan®) tablets at 30 mg each, three times per day. The treatment period lasted 4 weeks, and during this period patients were asked to continue Faith headache diaries: and record headache intensity, frequency, duration, any medication taken and any possible adverse events. At a follow up visit at day 29-32, diaries were collected and possible adverse events and evaluation of the treatment were recorded. Due to the restricted number of patients, no statistical analysis were done. The efficacy parameters were headache intensity, frequency and duration, and intake of simple analgesics. Mean values from the run-in period were compared to those obtained during the treatment period.

human volunteers = conditions: cited from earlier work
tension-type headache = conditions: literature reports; cited from earlier work
[2] = tested on: patients with chronic tension-type headache; test: Open labeled pilot study of prophylactic Gabapentin; assay type: in vivo, human
Source text: Three patients with a diagnosis of chronic tension-type headache according to the International Headache society (Headache Classification Committee 1988) were recruited from the outpatient headache clinic at Glostrup Hospital. The patients were males with a mean age of 42 years (range. 35-49). The mean life time duration of chronic tension-type headache was 16 years (range 7-21). […] Exclusion criteria were: daily major medication (including prophylactic headache therapy); abuse of analgesics or alcohol; serious somatic or psychiatric diseases including depression.
Using an open labeled design, patients fulfilled a diagnostic headache diary during at least 4 weeks run-in period to ensure the diagnostic criteria. Thereafter, the patients received Gabapentin (Neurontin®) tablets, initially 300 mg (one tablet) per day on day one, increasing with 300 mg (1 tablet) per day to 900 mg (3 tablets) on day 3. The treatment period lasted […], and during this period patients were asked to continue with headache diaries, and record headache intensity, frequency, duration, any medication taken and any possible adverse events. At a follow, up visit at day 29-32, diaries were collected and any adverse events and evaluation of the treatment were recorded. Duo to the low number of patients, no statistical analysis were done. The primary efficacy parameters were headache intensity frequency and duration, and the mean values from the run-in period were compared to those obtained during the treatment period, […]

GABA B = GABA B (Homo sapiens, UniProt Q9UBS5); conditions: cited from earlier work
Chain of GABA B (Q9UBS5 15-961 limits assumed): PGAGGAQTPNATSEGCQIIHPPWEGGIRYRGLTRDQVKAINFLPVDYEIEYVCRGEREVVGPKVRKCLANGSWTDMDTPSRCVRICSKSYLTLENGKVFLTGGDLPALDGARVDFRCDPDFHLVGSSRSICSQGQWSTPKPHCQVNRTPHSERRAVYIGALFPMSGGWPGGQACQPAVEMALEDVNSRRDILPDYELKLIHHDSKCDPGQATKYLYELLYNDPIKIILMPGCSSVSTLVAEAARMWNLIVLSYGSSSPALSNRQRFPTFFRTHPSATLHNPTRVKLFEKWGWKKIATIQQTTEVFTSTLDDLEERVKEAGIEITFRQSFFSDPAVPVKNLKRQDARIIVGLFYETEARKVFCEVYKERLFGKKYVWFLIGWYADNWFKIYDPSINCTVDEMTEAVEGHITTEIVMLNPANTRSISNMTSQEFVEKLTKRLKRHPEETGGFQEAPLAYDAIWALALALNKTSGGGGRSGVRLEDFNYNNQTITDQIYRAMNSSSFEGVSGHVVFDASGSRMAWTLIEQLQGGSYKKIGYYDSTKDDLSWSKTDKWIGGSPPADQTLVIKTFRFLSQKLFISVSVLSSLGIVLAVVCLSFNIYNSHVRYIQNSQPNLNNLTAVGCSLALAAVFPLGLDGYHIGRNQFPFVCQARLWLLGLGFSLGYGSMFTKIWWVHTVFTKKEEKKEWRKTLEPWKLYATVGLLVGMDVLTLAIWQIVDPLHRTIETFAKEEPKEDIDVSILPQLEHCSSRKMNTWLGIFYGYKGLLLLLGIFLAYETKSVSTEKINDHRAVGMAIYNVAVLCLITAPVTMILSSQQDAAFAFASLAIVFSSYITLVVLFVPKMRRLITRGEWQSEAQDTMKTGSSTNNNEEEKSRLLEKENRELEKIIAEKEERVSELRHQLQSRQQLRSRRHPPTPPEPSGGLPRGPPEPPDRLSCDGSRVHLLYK
Chain of GABA B (O75899 42-941 partner): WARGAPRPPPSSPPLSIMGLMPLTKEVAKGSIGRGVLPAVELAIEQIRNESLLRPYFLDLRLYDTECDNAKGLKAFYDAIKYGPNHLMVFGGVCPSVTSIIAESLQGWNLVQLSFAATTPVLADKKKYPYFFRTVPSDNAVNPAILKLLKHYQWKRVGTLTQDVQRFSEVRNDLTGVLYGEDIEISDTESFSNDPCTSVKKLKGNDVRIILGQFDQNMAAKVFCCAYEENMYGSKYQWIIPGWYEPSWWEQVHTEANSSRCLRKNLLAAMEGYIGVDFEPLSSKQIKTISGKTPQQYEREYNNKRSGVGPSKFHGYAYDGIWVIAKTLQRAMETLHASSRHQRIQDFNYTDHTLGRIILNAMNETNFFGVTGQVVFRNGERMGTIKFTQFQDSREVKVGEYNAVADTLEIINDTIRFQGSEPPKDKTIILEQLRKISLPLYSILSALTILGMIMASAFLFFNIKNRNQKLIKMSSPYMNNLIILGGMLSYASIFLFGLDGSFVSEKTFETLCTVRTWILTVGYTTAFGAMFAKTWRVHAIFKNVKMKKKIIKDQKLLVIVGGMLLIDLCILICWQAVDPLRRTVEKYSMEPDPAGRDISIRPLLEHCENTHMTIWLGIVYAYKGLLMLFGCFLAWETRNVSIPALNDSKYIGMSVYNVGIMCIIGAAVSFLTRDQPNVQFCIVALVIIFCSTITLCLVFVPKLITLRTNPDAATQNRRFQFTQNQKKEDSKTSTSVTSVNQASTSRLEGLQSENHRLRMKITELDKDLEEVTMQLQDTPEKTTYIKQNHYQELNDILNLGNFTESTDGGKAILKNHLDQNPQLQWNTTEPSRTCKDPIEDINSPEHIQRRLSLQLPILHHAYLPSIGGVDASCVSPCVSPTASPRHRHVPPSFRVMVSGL

GABA A = conditions: cited from earlier work
[3] = tested on: alpha-2-subunit of a calcium channel; conditions: cited from earlier work
migraine = conditions: literature reports; cited from earlier work
[4] = 0-10 VAS intensity scale, during active treatment, mean
[5] = 0-10 VAS intensity scale, run-in period, mean
[6] = open labeled, no statistical analysis

COc1ccc2c(c1)[C@]13CCCC[C@@H]1[C@H](C2)N(C)CC3 [Dextromethorphan]
Headache intensity, active treatment [1, 4]: 3.6
Headache intensity, run-in period [1, 5]: 4.4
Effect in the individual patients ([1]; 5 patients): Two patients reported a marked effect with considerable relief of headache intensity and duration within very few days of treatment; also recorded: one patient had a slight relief of headache intensity; also recorded: two patients reported no effect at all
Side effects ([1]; 5 patients): Four patients reported no side effects; also recorded: marked side effects with sedation was reported in one patient
Frequency of headache, active treatment ([1]; active treatment): 27 days per 4 weeks period
Mean intake of analgesics, active treatment ([1]; active treatment): 0.5 dose per day
Overall prophylactic effect [1, 6]: positive prophylactic effect
Frequency of headache, run-in period ([1]; run-in): 28 days per 4 weeks period
Mean intake of analgesics, run-in period ([1]; run-in period): 1.8 dose per day
Decrease of frequency of headache ([1]; treatment vs run-in period): 4%
Decrease of intake of analgesics ([1]; treatment vs run-in period): 72%
Reduction of duration of the individual headache episode ([1]; treatment vs run-in period): 11%
Reduction of headache intensity ([1]; treatment vs run-in period, 30 mg three times per day, 4 weeks, 5 patients): 18%
After sensation induced by repetitive stimuli (human volunteers): reduce the after sensation

CCOC(=O)Nc1ccc(NCc2ccc(F)cc2)nc1N [Flupirtin, ethyl 2-amino-6-(4-fluorobenylamino)-3-pyridylcarbamate]
Effect in tension-type headache (tension-type headache): positive effects

NCC1(CC(=O)O)CCCCC1 [Gabapentin]
Headache intensity, active treatment [2, 4]: 3.6
Headache intensity, run-in period [2, 5]: 5.5
Effect in the individual patients ([2]; 3 patients): One patient had excellent effect of Gabapentin with complete relief of the headache after 2 days treatment; also recorded: another patient had a moderate effect on headache intensity and frequency; also recorded: the third patient had no significant effect on any of efficacy parameters
Side effects ([2]; 3 patients): Those two subjects with good or excellent effect reported no side effects; also recorded: sedation, vertigo and slight nausea
Mean daily intake of analgesics, active treatment ([2]; active treatment): 0.3 dose per day
Frequency of headache, active treatment ([2]; active treatment period): 13 days per 4 weeks
Overall prophylactic effect [2, 6]: positive prophylactic effect
Frequency of headache, run-in period ([2]; run-in period): 23.5 days per 4 weeks
Mean daily intake of analgesics, run-in period ([2]; run-in period): 1.1 dose per day
Decrease of frequency of headache ([2]; treatment vs run-in period): 45%
Decrease of mean daily intake of analgesics ([2]; treatment vs run-in period): 72%
Reduction of duration of the individual headache episode ([2]; treatment vs run-in period): 8%
Decrease of headache intensity ([2]; treatment vs run-in period, up to 900 mg per day, 3 patients): 35%
Affinity for GABA B (GABA B): fail to show affinity
Affinity for GABA A (GABA A): fail to show affinity
Binding affinity to the alpha-2-subunit of a calcium channel [3]: showed binding affinity

CNS(=O)(=O)Cc1ccc2[nH]cc(CCN(C)C)c2c1 [sumatriptan]
Effect in migraine (migraine): highly effective
Effect in tension-type headache (tension-type headache): not effective to a clinically relevant extent
